Source: PubChem BioAssay AID328 (DTP/NCI, 2004)
Values joined by “and” are separate entries in the source; they are usually repeats but may differ in a detail not shown here. Equal values may be shown once. Toxic doses and inconclusive results are not listed.

System: BDF1 mice, P388 leukemia ip, median survival T/C
Assay: NCI In Vivo Anticancer Drug Screen. Data for tumor model P388 Leukemia (intraperitoneal) in B6D2F1 (BDF1) mice
Settings: endpoint: median survival time, higher = longer survival
Summary of the method: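 In tumour-bearing mice, survival after compound treatment is set against the vehicle group and given as a quotient.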

[1] = dose: 100.0 mg/kg/injection, schedule: Q04DX003 (ip), vehicle: saline with Tween-80
[2] = dose: 150.0 mg/kg/injection, schedule: Q04DX003 (ip), vehicle: Klucel (hydroxypropylcellulose) (HPC)
[3] = dose: 200.0 mg/kg/injection, schedule: Q04DX003 (ip), vehicle: saline with Tween-80
[4] = dose: 400.0 mg/kg/injection, schedule: Q04DX003 (ip), vehicle: saline with Tween-80
[5] = dose: 100.0 mg/kg/injection, schedule: Q01DX009 (ip), vehicle: saline with Tween-80
[6] = dose: 200.0 mg/kg/injection, schedule: Q01DX009 (ip), vehicle: saline with Tween-80
[7] = dose: 50.0 mg/kg/injection, schedule: Q04DX003 (ip), vehicle: saline
[8] = dose: 100.0 mg/kg/injection, schedule: Q04DX003 (ip), vehicle: saline
[9] = dose: 200.0 mg/kg/injection, schedule: Q04DX003 (ip), vehicle: saline
[10] = dose: 400.0 mg/kg/injection, schedule: Q04DX003 (ip), vehicle: saline
[11] = dose: 50.0 mg/kg/injection, schedule: Q01DX009 (ip), vehicle: saline with Tween-80
[12] = dose: 100.0 mg/kg/injection, schedule: Q01DX009 (ip), vehicle: Klucel (hydroxypropylcellulose) (HPC)
[13] = dose: 200.0 mg/kg/injection, schedule: Q01DX009 (ip), vehicle: Klucel (hydroxypropylcellulose) (HPC)
[14] = dose: 100.0 mg/kg/injection, schedule: Q01DX009 (ip), vehicle: saline
[15] = dose: 400.0 mg/kg/injection, schedule: Q01DX009 (ip), vehicle: Klucel (hydroxypropylcellulose) (HPC)

`O=NN(CCCl)C(=O)NC12CC3CC(CC(C3)C1)C2` was tested, and the T/C (dose: 5.0 mg/kg/injection, schedule: Q04DX003 (ip), vehicle: Klucel (hydroxypropylcellulose) (HPC)) was 100 % of control, the T/C (dose: 15.0 mg/kg/injection, schedule: Q04DX003 (ip), vehicle: Klucel (hydroxypropylcellulose) (HPC)) was 95 % of control and the T/C (dose: 30.0 mg/kg/injection, schedule: Q04DX003 (ip), vehicle: Klucel (hydroxypropylcellulose) (HPC)) was 104 % of control. The T/C (dose: 37.5 mg/kg/injection, schedule: Q04DX003 (ip), vehicle: Klucel (hydroxypropylcellulose) (HPC)) was 166 % of control, the T/C (dose: 75.0 mg/kg/injection, schedule: Q04DX003 (ip), vehicle: Klucel (hydroxypropylcellulose) (HPC)) was 250 % of control and the T/C [1] was 285 % of control. For the same compound, the T/C [2] was 250 % of control, the T/C (dose: 175.0 mg/kg/injection, schedule: Q04DX003 (ip), vehicle: saline) was 103 % of control and the T/C [3] was 285 % of control. The T/C [4] was 285 % of control.

With `O=C(O)c1cc2ccccc2c2cc(Br)ccc12` the T/C [1] was 100 % of control and the T/C [3] was 104 % of control.

`COC(OC)c1nc(N)[nH]c(=O)c1Cc1ccc(Br)cc1` was tested, and the T/C [1] was 95 % of control, the T/C [3] was 104 % of control and the T/C [4] was 100 % of control.

In the case of `O=C1c2ccccc2C(=O)N1N1C(=O)c2ccccc2C1=O`, the T/C [5] is reported as 100 % of control, the T/C [6] is reported as 90 % of control and the T/C (dose: 400.0 mg/kg/injection, schedule: Q01DX009 (ip), vehicle: saline with Tween-80) is reported as 100 % of control.

For `CC(=O)OCCCl`, the T/C (dose: 50.0 mg/kg/injection, schedule: Q04DX003 (ip), vehicle: suspension in saline) was 99 % of control, the T/C (dose: 100.0 mg/kg/injection, schedule: Q04DX003 (ip), vehicle: suspension in saline) was 103 % of control and the T/C (dose: 200.0 mg/kg/injection, schedule: Q04DX003 (ip), vehicle: suspension in saline) was 103 % of control. For the same compound, the T/C (dose: 400.0 mg/kg/injection, schedule: Q04DX003 (ip), vehicle: suspension in saline) was 114 % of control.

In the case of `Cc1ccc2c(=O)n3cccc3c(=O)[nH]c2c1O`, the T/C [1] is reported as 103 % of control, the T/C [3] is reported as 100 % of control and the T/C [4] is reported as 96 % of control.

`CC(=O)N1C(=O)NC(=O)C1(CSCc1ccccc1)CSCc1ccccc1` was tested, and the T/C (dose: 25.0 mg/kg/injection, schedule: Q04DX003 (ip), vehicle: saline) was 98 % of control, the T/C [7] was 98 % of control and the T/C [8] was 116 % of control. For the same compound, the T/C [9] was 107 % of control and the T/C [10] was 99 % of control.

`Cc1cc(O)c(C(c2ccccc2)c2c(O)cc(C)[nH]c2=O)c(=O)[nH]1` was tested, and the T/C [11] was 94 % of control and the T/C [5] was 86 % of control.

In the case of `CCCCCCCCO/N=C\c1c2c(O)c3c(O)c(C)c4c(c3c1O)C(=O)C(C)(O/C=C\C(OC)C(C)C(OC(C)=O)C(C)C(O)C(C)C(O)C(C)/C=C\C=C(\C)C(=O)N2)O4` (stereo not given), the T/C [12] is reported as 100 % of control and the T/C [13] is reported as 100 % of control.

For `CCSC(C(OC(C)=O)C(OC(C)=O)C(OC(C)=O)C(COC(C)=O)OC(C)=O)n1cnc2c(=S)nc[nH]c21` (stereo not given), the T/C (dose: 12.5 mg/kg/injection, schedule: Q01DX005 (ip), vehicle: saline with Tween-80) was 98 % of control and the T/C (dose: 25.0 mg/kg/injection, schedule: Q01DX005 (ip), vehicle: saline with Tween-80) was 95 % of control.

For `CC(=O)NC1CCCC(O)C1` (stereo not given), the T/C [14] was 90 % of control, the T/C [8] was 100 % of control and the T/C (dose: 200.0 mg/kg/injection, schedule: Q01DX009 (ip), vehicle: saline) was 95 % of control. The T/C [9] was 113 % of control, the T/C (dose: 400.0 mg/kg/injection, schedule: Q01DX009 (ip), vehicle: saline) was 100 % of control and the T/C [10] was 104 % of control.

In the case of `CC(C)CCCc1c[nH]c(=O)[nH]c1=O`, the T/C (dose: 100.0 mg/kg/injection, schedule: Q01DX001 (ip), vehicle: Klucel (hydroxypropylcellulose) (HPC)) is reported as 90 % of control, the T/C [12] is reported as 86 % of control and the T/C (dose: 200.0 mg/kg/injection, schedule: Q01DX001 (ip), vehicle: Klucel (hydroxypropylcellulose) (HPC)) is reported as 90 % of control. For the same compound, the T/C [13] was 86 % of control, the T/C (dose: 400.0 mg/kg/injection, schedule: Q01DX001 (ip), vehicle: Klucel (hydroxypropylcellulose) (HPC)) was 90 % of control and the T/C [15] was 91 % of control.

For `CCN(CC)CCCNc1cccc2c(C)cc(OC)nc12`, the T/C [11] was 97 % of control and the T/C [5] was 114 % of control.

For `COc1ccc(/C=C/c2c[n+]([O-])ccc2[N+](=O)[O-])cc1`, the T/C [11] was 105 % of control, the T/C [5] was 109 % of control and the T/C [6] was 119 % of control.

With `Cc1ccc(S(=O)(=O)OCCN(CCOS(=O)(=O)c2ccc(C)cc2)c2cc(OCc3ccccc3)cc(OCc3ccccc3)c2)cc1` the T/C (dose: 1.56 mg/kg/injection, schedule: Q01DX009 (ip), vehicle: water) was 90 % of control and 99 % of control, the T/C (dose: 3.12 mg/kg/injection, schedule: Q01DX009 (ip), vehicle: water) was 93 % of control and 100 % of control and the T/C (dose: 6.25 mg/kg/injection, schedule: Q01DX009 (ip), vehicle: water) was 98 % of control and 110 % of control. For the same compound, the T/C (dose: 12.5 mg/kg/injection, schedule: Q01DX009 (ip), vehicle: water) was 91 % of control and 100 % of control, the T/C (dose: 25.0 mg/kg/injection, schedule: Q01DX009 (ip), vehicle: water) was 93 % of control and 100 % of control and the T/C (dose: 50.0 mg/kg/injection, schedule: Q04DX003 (ip), vehicle: water) was 91 % of control. The T/C (dose: 100.0 mg/kg/injection, schedule: Q01DX009 (ip), vehicle: water) was 88 % of control, the T/C (dose: 100.0 mg/kg/injection, schedule: Q04DX003 (ip), vehicle: water) was 89 % of control and the T/C (dose: 200.0 mg/kg/injection, schedule: Q04DX003 (ip), vehicle: water) was 97 % of control. The T/C (dose: 400.0 mg/kg/injection, schedule: Q04DX003 (ip), vehicle: water) was 97 % of control.

In the case of `COc1cc2c(c(OC)c1OC)-c1ccc(SC)c(=O)cc1[C@@H](NC1OC(CO)C(O)C(O)C1O)CC2` (stereo not given in full), the T/C (dose: 50.0 mg/kg/injection, schedule: Q01DX009 (ip), vehicle: saline) is reported as 155 % of control.

In the case of `O=S(=O)(NC(=S)Nc1ccc(Cl)cc1)c1ccccc1`, the T/C (dose: 50.0 mg/kg/injection, schedule: Q01DX009 (ip), vehicle: Klucel (hydroxypropylcellulose) (HPC)) is reported as 113 % of control, the T/C [12] is reported as 118 % of control and the T/C [2] is reported as 113 % of control. For the same compound, the T/C (dose: 225.0 mg/kg/injection, schedule: Q04DX003 (ip), vehicle: Klucel (hydroxypropylcellulose) (HPC)) was 117 % of control and the T/C (dose: 335.0 mg/kg/injection, schedule: Q04DX003 (ip), vehicle: Klucel (hydroxypropylcellulose) (HPC)) was 113 % of control.

`CCCN(CCC)CCCCO` was tested, and the T/C (dose: 22.0 mg/kg/injection, schedule: Q04DX003 (ip), vehicle: saline) was 104 % of control, the T/C (dose: 33.0 mg/kg/injection, schedule: Q04DX003 (ip), vehicle: saline) was 109 % of control and the T/C [7] was 104 % of control. The T/C (dose: 75.0 mg/kg/injection, schedule: Q04DX003 (ip), vehicle: saline) was 104 % of control.

In the case of `O=S(=O)(O)O.[Co+3].[Co+3].[NH2-].[NH2-].[NH2-].[NH2-].[NH2-].[NH2-].[NH2-].[NH2-].[NH2-].[NH2-].[O-][O-]`, the T/C (dose: 1.56 mg/kg/injection, schedule: Q01DX009 (ip), vehicle: saline) is reported as 97 % of control, the T/C (dose: 3.13 mg/kg/injection, schedule: Q01DX009 (ip), vehicle: saline) is reported as 98 % of control and the T/C (dose: 6.25 mg/kg/injection, schedule: Q01DX009 (ip), vehicle: saline) is reported as 97 % of control.

For `O=C(O)C(O)C(O)C(O)C(O)CO.[Mn]` (stereo not given), the T/C (dose: 66.0 mg/kg/injection, schedule: Q01DX009 (ip), vehicle: saline) was 116 % of control and the T/C [14] was 116 % of control.

With `CCOC(=O)C(C)NC(=O)C(C)NC(=O)OCc1ccccc1` (stereo not given) the T/C (dose: 100.0 mg/kg/injection, schedule: Q01DX009 (ip), vehicle: gum acacia) was 120 % of control, the T/C (dose: 100.0 mg/kg/injection, schedule: Q04DX003 (ip), vehicle: gum acacia) was 95 % of control and the T/C (dose: 200.0 mg/kg/injection, schedule: Q01DX009 (ip), vehicle: gum acacia) was 100 % of control. The T/C (dose: 200.0 mg/kg/injection, schedule: Q04DX003 (ip), vehicle: gum acacia) was 112 % of control, the T/C (dose: 400.0 mg/kg/injection, schedule: Q01DX009 (ip), vehicle: gum acacia) was 95 % of control and the T/C (dose: 400.0 mg/kg/injection, schedule: Q04DX003 (ip), vehicle: gum acacia) was 87 % of control.

In the case of `N=C(N)SCCC(=O)O`, the T/C (dose: 50.0 mg/kg/injection, schedule: Q04DX003 (ip), vehicle: Klucel (hydroxypropylcellulose) (HPC)) is reported as 109 % of control, the T/C [12] is reported as 100 % of control and the T/C (dose: 100.0 mg/kg/injection, schedule: Q04DX003 (ip), vehicle: Klucel (hydroxypropylcellulose) (HPC)) is reported as 100 % of control. For the same compound, the T/C [13] was 110 % of control, the T/C (dose: 200.0 mg/kg/injection, schedule: Q04DX003 (ip), vehicle: Klucel (hydroxypropylcellulose) (HPC)) was 109 % of control and the T/C [15] was 90 % of control.
